Molecules are shown by their SMILES. Some results are limits rather than exact numbers.

The target in test [1] is DYRK1A kinase (Homo sapiens, UniProt Q13627). Description: DYRK1A kinase activity (Ser/Thr 18 peptide Z-lyte FRET assay).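 Also: kinase activity read as coumarin/fluorescein emission ratio after development step, with unphosphorylated and phosphorylated peptide forms setting 0% and 100% controls, values from dose-response curves.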 It counts as biochemical. The following applies: recombinant DYRK1A, 30 μM ATP, one hour at room temperature.
The target in test [2] is GSK3β kinase (Homo sapiens, UniProt P49841). The test can be described thus: GSK3β kinase activity (Ser/Thr 09 peptide Z-lyte FRET assay). The class given is biochemical. The note with it: recombinant kinase, 46 μM ATP, one hour at room temperature; read-out: EC50.
GSK3β kinase, sequence (P49841 whole entry): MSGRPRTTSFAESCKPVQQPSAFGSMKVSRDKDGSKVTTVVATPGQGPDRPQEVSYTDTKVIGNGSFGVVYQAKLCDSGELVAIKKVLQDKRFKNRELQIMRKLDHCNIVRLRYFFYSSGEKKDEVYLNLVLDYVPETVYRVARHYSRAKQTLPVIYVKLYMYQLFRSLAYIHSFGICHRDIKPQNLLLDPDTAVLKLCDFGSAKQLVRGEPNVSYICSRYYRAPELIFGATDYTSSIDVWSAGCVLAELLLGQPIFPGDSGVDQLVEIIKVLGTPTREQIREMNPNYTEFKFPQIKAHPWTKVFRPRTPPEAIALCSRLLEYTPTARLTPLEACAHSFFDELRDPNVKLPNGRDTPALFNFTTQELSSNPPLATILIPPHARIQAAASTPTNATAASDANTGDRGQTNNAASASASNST
Method: Each compound is dissolved in DMSO as a 10 mM stock and used to prepare compound source plates. Serial dilution (1:3, 11-point dose-response curves from 10 μM to 0.0003 μM) and compound transfer was performed using the ECHO 550 (Labcyte, Sunnyvale, Calif.) into 1536-well black-walled round bottom plates (Corning).
This is a non-radioactive assay using fluorescence resonance energy transfer (FRET) between coumarin and fluorescein to detect kinase activity which is represented as ratio of coumarin emission/fluorescein emission.
The mixture is allowed to incubate with the representative compounds for one hour at room temperature. All reactions were performed in duplicate. Unphosphorylated (“0% Control”) and phosphorylated (“100% control”) forms of Ser/Thr 18 serve as control reactions.
After incubation, diluted Development Buffer is added to the reaction and allowed to further incubate for one hour at room temperature.
Dose-response curves are generated and inhibitory concentration (IC50) values are calculated using non-linear regression curve fit in the Dotmatics' Studies Software (Bishops Stortford, UK).
Test [3] concerns secreted cytokines TNFα, IL-6 and KC-GRO. Description: Secreted cytokines in Lipopolysaccharide-stimulated BV-2 cells (Table 9 does not say which cytokine). It counts as cell-based, mouse. The note with it: Mus musculus, BV-2, 5 h; read-out: EC50.
Test [4] has as its system SW480 colon carcinoma cells. Description: Cell viability assay (CellTiter-Glo). The following applies: Homo sapiens; for EC50: SW480, 96 h; for inhibition at 10 µM: SW480, read-out: percent inhibition at 10 μM.
For test [5], the system named is Wnt-responsive Sp5-Luc reporter in SW480 colon carcinoma cells. Description: Screening assay for Wnt activity (Sp5-Luc reporter gene assay). The following applies: Homo sapiens; for EC50: SW480.
In test [6] the test system is IL-6. The test can be described thus: IL-6 inhibition in LPS-stimulated human peripheral blood mononuclear cells (HTRF). The note with it: Homo sapiens, PBMC; for EC50: 22 h; for inhibition at 10 µM: read-out: percentage in parentheses after EC50 >10.
The subject of test [7] is α-smooth muscle actin (aSMA) positive LL29 cells. The test can be described thus: Inhibition of the fibrotic process: αSMA staining in TGF-β1 treated LL29 fibroblasts from IPF patients. The note with it: Homo sapiens, Fibroblast; for EC50: 96 h; for inhibition at 10 µM: read-out: percentage in parentheses after EC50 >10.

As for `CN1CCN(c2cc(C(=O)Nc3cc4nc(-c5ccc(N)nc5)ccc4cn3)ccn2)CC1` [Compound 807, N-(2-(6-Aminopyridin-3-yl)-1,6-naphthyridin-7-yl)-2-(4-methylpiperazin-1-yl)isonicotinamide], the EC50 in test [1] was 7 nM; in test [2], greater than 10000 nM; in test [3], 265 nM; in test [4], 860 nM; in test [5] it was 484 nM; in test [6], 4200 nM. Further, in test [7], the EC50 turned out to be 1410 nM.

On to `CN1CC=C(c2cc(C(=O)Nc3cc4cc(-c5cncc(NC(C)(C)C)n5)cnc4cn3)ccn2)CC1` [Compound 3587, N-(3-(6-(tert-Butylamino)pyrazin-2-yl)-1,7-naphthyridin-6-yl)-1′-methyl-1′,2′,3′,6′-tetrahydro-[2,4′-bipyridine]-4-carboxamide], for which the EC50 is 1 nM in test [1]; greater than 10000 nM in test [2]; 11 nM in test [3]; 821 nM in test [4]; 357 nM in test [5]; 7660 nM in test [6]. This compound also returned an EC50 in test [7] of 1440 nM.

Consider `CN1CCc2ccc(C(=O)Nc3ncc4ccc(-c5cnn(C)c5)cc4n3)cc2C1` [Compound 1109, 2-Methyl-N-(7-(1-methyl-1H-pyrazol-4-yl)quinazolin-2-yl)-1,2,3,4-tetrahydroisoquinoline-7-carboxamide], for which the EC50 in test [1] was 18 nM; in test [2] it was greater than 10000 nM; in test [3], 349 nM; in test [4] it was 9480 nM; in test [5], 1920 nM; in test [6], greater than 10000 nM. Besides, the EC50 in test [7] was greater than 10000 nM. For the same compound, the inhibition at 10 µM stood at 6.3% in test [6] and 16.4% in test [7].

Take `Cn1cc(-c2ccc3cnc(NC(=O)c4cnn(C5CCNCC5)c4)cc3n2)cn1` [Compound 228, N-(2-(1-Methyl-1H-pyrazol-4-yl)-1,6-naphthyridin-7-yl)-1-(piperidin-4-yl)-1H-pyrazole-4-carboxamide]: the EC50 worked out at 6 nM in test [1]; 753 nM in test [2]; 207 nM in test [3]; 105 nM in test [4]; 76 nM in test [5]; 723 nM in test [6]. The EC50 in test [7] amounted to 376 nM.

Consider `CC(C)OC(=O)N1CCC(n2cc(C(=O)Nc3cc4cc(-c5cnn(C)c5)cnc4cn3)cn2)CC1` [Compound 2954, Isopropyl 4-(4-((3-(1-methyl-1H-pyrazol-4-yl)-1,7-naphthyridin-6-yl)carbamoyl)-1H-pyrazol-1-yl)piperidine-1-carboxylate], for which the EC50 in test [1] was 28 nM; in test [2] it was greater than 10000 nM; in test [3] it was 491 nM; in test [4] it was 1500 nM; in test [5], 915 nM; in test [6] it was greater than 10000 nM. The EC50 in test [7] turned out to be 3340 nM. For the same compound, the inhibition at 10 µM in test [6] is 45%.

For the compound `Nc1cncc(-c2cnc3cnc(NC(=O)c4ccc(OC5CCNCC5)cc4)cc3c2)c1` [Compound 3524, N-(3-(5-Aminopyridin-3-yl)-1,7-naphthyridin-6-yl)-4-(piperidin-4-yloxy) benzamide], the concentration giving a half-maximal response (EC50) in test [1] is 11 nM; in test [2], greater than 10000 nM; in test [3], 582 nM; in test [4], 3710 nM; in test [5], 3550 nM; in test [6], greater than 10000 nM. In addition, the EC50 in test [7] was greater than 10000 nM. Besides, the values for the inhibition at 10 µM in test [6] and in test [7] were 5.6% and 50%, respectively.

In the case of `Cn1cc(-c2ccc3cnc(NC(=O)c4ccc5nccnc5c4)nc3c2)cn1` [Compound 1123, N-(7-(1-Methyl-1H-pyrazol-4-yl)quinazolin-2-yl)quinoxaline-6-carboxamide], the EC50 was 13 nM in test [1]; 4800 nM in test [2]; 1000 nM in test [3]; 6120 nM in test [4]; 1960 nM in test [5]; greater than 10000 nM in test [6]. Besides, the EC50 in test [7] is greater than 10000 nM. Further, the inhibition at 10 µM was determined as 6.5% in test [6] and 22% in test [7].

`CN1CCC(n2cc(C(=O)Nc3cc4nc(-c5cnn(C)c5)ccc4cn3)cn2)CC1` [Compound 229, N-(2-(1-Methyl-1H-pyrazol-4-yl)-1,6-naphthyridin-7-yl)-1-(1-methylpiperidin-4-yl)-1H-pyrazole-4-carboxamide]: the EC50 in test [1] was determined as 11 nM; in test [2] it was 2900 nM; in test [3], 62 nM; in test [4], 122 nM; in test [5] it was 90 nM; in test [6], 859 nM. This compound registered an EC50 in test [7] of 318 nM.

With `CN(C)C1CCN(c2cc(C(=O)Nc3cc4nc(-c5cn(C)nn5)ccc4cn3)ccn2)CC1` [Compound 376, 2-(4-(Dimethylamino)piperidin-1-yl)-N-(2-(1-methyl-1H-1,2,3-triazol-4-yl)-1,6-naphthyridin-7-yl)isonicotinamide], the concentration for a half-maximal effect (EC50) in test [1] worked out at 19 nM; in test [2], 665 nM; in test [3] it was 1700 nM; in test [4] it was 1510 nM; in test [5], 3420 nM; in test [6] it was 7960 nM. In test [7], this compound registered an EC50 of 3480 nM.

In the case of `Cc1ncc(-c2ccc3cnc(NC(=O)c4ccnc(N5CCN(C)CC5)c4)cc3n2)s1` [Compound 643, 2-(4-Methylpiperazin-1-yl)-N-(2-(2-methylthiazol-5-yl)-1,6-naphthyridin-7-yl)isonicotinamide], the EC50 is 10 nM in test [1]; 8560 nM in test [2]; no less than 10000 nM in test [3]; 803 nM in test [4]; 688 nM in test [5]; 9220 nM in test [6]. Moreover, in test [7], the EC50 was found to be 1430 nM.

For the compound `CN1CCC(Nc2cc(C(=O)Nc3cc4nc(-c5cnn(C)c5)ccc4cn3)ccn2)CC1` [Compound 4538, N-(2-(1-Methyl-1H-pyrazol-4-yl)-1,6-naphthyridin-7-yl)-2-((1-methylpiperidin-4-yl)amino)isonicotinamide], the EC50 in test [1] was 3 nM; in test [2], greater than 10000 nM; in test [3], 47 nM; in test [4] it was 952 nM; in test [5] it was 278 nM; in test [6], 3430 nM. This compound also gave an EC50 in test [7] of 708 nM.

`CC(C)OCCC(=O)Nc1cc2nc(-c3cncn3C)ccc2cn1` [Compound 416, 3-Isopropoxy-N-(2-(1-methyl-1H-imidazol-5-yl)-1,6-naphthyridin-7-yl) propanamide]: the EC50 in test [1] is 31 nM; in test [2], 49 nM; in test [3] it was 3300 nM; in test [4], greater than 10000 nM; in test [5], 386 nM; in test [6], 5760 nM. Further, in test [7], the EC50 is 355 nM. Moreover, the inhibition at 10 µM in test [4] was determined as 52.1%.

For `Cn1cc(-c2ccc3cnc(NC(=O)c4ccc5ccoc5c4)nc3c2)cn1` [Compound 1116, N-(7-(1-Methyl-1H-pyrazol-4-yl)quinazolin-2-yl)benzofuran-6-carboxamide], the concentration for a half-maximal effect (EC50) was 15 nM in test [1]; greater than 10000 nM in test [2]; 960 nM in test [3]; 3030 nM in test [4]; 791 nM in test [5]; greater than 10000 nM in test [6]. Moreover, in test [7], the midpoint of the response, the EC50, lay at 2720 nM. The inhibition at 10 µM in test [6] is 3.8%.

Consider `Cc1ncc(-c2ccc3cnc(NC(=O)c4cccnc4)cc3n2)s1` [Compound 642, N-(2-(2-Methylthiazol-5-yl)-1,6-naphthyridin-7-yl)nicotinamide], for which the EC50 in test [1] is 6 nM; in test [2], 3060 nM; in test [3], 1300 nM; in test [4], 1030 nM; in test [5], 869 nM; in test [6] it was greater than 10000 nM. The same compound showed an EC50 in test [7] of 988 nM. Besides, the inhibition at 10 µM in test [6] is 22.4%.

Turning to `Cn1cc(-c2ccc3cnc(NC(=O)c4ccc5ccoc5c4)cc3n2)cn1` [Compound 209, N-(2-(1-Methyl-1H-pyrazol-4-yl)-1,6-naphthyridin-7-yl)benzofuran-6-carboxamide], the EC50 in test [1] was 5 nM; in test [2], greater than 10000 nM; in test [3], 864 nM; in test [4], 3150 nM; in test [5], 485 nM; in test [6], greater than 10000 nM. Also, the EC50 in test [7] was 436 nM. In test [6], the inhibition at 10 µM came out at 3.1%.

Regarding `O=C(Nc1ncc2ccc(-c3cncc(NC4CCNCC4)n3)cc2n1)C1CCOCC1` [Compound 1783, N-(7-(6-(Piperidin-4-ylamino)pyrazin-2-yl)quinazolin-2-yl)tetrahydro-2H-pyran-4-carboxamide], the EC50 was 7 nM in test [1]; 536 nM in test [2]; 6800 nM in test [3]; greater than 10000 nM in test [4]; greater than 10000 nM in test [5]; greater than 10000 nM in test [6]. This compound also yielded an EC50 in test [7] greater than 10000 nM. Further, the inhibition at 10 µM in test [4] is 38.8%; in test [5] (SW480, read-out: percent inhibition at 10 μM), 14.4%; in test [6], 6.1%; in test [7] it was 53.7%.

Source of the values: US10703748B2, “Diazanaphthalen-3-yl carboxamides and preparation and use thereof” (Samumed, LLC, priority 2017, dated 2020).
